Assay results: publication PMC6199744, “Development of Chemical Proteomics for the Folateome and Analysis of the Kinetoplastid Folateome” (ACS Infectious Diseases, 2018)
Where two headings read alike, the source gives them in different places.

Experiments:
Format in all cases: binding
[1] = target: T1, HeLa cell extract proteins (Homo sapiens, UniProt P53618)
T1 construct: endogenous in cells; host or cells: HeLa cell extract
T1 sequence (P53618 1-953): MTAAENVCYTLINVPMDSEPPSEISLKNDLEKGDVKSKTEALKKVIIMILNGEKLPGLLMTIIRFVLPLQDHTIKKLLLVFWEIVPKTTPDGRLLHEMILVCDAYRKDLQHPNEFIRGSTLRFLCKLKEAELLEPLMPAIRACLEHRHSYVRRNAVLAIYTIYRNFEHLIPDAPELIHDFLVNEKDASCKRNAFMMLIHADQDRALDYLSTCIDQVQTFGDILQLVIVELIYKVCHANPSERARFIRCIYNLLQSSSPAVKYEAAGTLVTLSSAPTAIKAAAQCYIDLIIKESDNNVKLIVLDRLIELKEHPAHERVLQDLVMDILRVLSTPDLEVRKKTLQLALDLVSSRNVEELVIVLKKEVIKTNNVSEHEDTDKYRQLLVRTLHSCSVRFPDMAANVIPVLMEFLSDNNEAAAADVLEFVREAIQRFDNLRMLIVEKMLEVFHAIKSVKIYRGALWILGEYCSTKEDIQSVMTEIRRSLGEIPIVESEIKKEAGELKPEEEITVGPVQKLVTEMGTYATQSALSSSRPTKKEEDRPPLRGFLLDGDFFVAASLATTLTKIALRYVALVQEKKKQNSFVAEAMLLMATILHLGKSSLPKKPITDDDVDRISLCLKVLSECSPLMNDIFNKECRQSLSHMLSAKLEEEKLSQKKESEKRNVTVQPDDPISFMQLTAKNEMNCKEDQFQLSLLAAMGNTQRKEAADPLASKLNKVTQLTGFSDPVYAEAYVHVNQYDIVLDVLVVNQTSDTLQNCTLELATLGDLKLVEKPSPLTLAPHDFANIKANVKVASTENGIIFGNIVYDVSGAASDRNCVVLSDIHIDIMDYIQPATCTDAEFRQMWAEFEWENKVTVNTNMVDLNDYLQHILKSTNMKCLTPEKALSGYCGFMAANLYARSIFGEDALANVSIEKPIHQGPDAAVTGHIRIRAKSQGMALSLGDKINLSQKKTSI

[2] = target: T2, HeLa cell extract proteins (Homo sapiens, UniProt P11021)
T2 construct: endogenous in cells; host or cells: HeLa cell extract

[3] = target: T3, HeLa cell extract proteins (Homo sapiens, UniProt Q9NUI1)
T3 construct: endogenous in cells; host or cells: HeLa cell extract
T3 sequence (Q9NUI1 1-292): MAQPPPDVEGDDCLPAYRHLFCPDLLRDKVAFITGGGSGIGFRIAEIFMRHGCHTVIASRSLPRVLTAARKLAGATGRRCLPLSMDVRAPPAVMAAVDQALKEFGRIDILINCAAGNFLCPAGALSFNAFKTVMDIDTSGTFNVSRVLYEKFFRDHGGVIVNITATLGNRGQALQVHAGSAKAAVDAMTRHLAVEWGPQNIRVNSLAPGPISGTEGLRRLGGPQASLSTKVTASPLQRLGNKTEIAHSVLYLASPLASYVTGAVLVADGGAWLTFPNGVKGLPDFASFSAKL

[4] = target: T4, HeLa cell extract proteins (Homo sapiens, UniProt Q9UBV8)
T4 construct: endogenous in cells; host or cells: HeLa cell extract
T4 sequence (Q9UBV8 1-284): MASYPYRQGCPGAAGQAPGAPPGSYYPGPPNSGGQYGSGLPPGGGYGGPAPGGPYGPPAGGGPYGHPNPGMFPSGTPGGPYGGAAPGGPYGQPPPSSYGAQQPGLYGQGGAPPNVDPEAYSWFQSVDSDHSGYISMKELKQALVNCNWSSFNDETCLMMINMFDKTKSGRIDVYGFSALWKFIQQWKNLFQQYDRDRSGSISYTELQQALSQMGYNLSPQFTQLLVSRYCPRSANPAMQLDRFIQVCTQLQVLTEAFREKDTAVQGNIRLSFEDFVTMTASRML

[5] = target: T5, HeLa cell extract proteins (Homo sapiens, UniProt P30101)
T5 construct: endogenous in cells; host or cells: HeLa cell extract
T5 sequence (P30101 25-505): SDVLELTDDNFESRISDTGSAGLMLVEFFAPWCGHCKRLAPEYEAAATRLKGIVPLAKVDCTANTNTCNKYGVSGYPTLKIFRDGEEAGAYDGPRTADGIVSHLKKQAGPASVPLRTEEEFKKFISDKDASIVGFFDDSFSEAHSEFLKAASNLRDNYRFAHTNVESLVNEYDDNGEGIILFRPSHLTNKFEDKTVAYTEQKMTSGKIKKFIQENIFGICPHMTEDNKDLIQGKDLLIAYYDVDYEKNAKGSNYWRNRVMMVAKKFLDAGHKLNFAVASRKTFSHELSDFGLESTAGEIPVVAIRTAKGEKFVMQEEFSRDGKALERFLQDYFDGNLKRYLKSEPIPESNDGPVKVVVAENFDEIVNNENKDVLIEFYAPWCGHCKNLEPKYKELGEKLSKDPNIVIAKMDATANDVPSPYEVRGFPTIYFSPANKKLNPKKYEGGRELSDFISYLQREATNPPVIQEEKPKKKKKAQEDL

[6] = target: T6, HeLa cell extract proteins (Homo sapiens, UniProt Q96PK6)
T6 construct: endogenous in cells; host or cells: HeLa cell extract
T6 sequence (Q96PK6 1-669): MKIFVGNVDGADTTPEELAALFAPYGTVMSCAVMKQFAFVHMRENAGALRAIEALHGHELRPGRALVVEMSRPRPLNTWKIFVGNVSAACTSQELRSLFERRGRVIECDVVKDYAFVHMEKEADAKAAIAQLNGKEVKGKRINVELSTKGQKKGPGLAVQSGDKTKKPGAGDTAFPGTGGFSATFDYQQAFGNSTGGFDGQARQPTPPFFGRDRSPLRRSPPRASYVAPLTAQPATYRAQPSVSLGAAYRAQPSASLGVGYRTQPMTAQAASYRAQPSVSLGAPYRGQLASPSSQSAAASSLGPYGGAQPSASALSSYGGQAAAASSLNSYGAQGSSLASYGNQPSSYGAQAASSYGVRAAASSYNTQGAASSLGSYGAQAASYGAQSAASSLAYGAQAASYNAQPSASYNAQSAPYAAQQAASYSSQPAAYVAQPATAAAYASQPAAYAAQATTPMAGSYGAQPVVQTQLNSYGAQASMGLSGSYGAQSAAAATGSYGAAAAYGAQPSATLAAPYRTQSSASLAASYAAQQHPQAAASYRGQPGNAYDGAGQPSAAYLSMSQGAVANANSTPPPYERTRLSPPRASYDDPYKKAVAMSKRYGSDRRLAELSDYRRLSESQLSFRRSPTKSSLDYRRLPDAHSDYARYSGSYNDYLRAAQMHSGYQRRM

T2 sequence (P11021 19-654): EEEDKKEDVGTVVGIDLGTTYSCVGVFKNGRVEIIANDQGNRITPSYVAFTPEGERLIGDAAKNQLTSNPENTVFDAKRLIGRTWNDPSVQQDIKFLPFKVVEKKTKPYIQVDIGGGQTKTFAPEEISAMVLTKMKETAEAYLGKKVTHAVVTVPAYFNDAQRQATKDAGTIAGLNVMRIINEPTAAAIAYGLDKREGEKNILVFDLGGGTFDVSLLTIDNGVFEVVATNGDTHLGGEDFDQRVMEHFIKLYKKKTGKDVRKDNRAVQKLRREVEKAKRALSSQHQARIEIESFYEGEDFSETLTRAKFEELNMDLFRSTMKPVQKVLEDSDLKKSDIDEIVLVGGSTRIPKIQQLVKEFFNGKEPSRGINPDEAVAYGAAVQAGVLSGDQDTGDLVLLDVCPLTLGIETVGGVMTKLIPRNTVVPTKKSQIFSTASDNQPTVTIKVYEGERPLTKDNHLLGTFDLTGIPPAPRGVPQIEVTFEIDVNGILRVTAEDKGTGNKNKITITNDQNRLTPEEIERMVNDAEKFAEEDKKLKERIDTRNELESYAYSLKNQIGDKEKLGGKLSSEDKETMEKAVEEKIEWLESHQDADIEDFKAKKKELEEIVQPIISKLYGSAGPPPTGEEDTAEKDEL

Row | Structure (SMILES) | fold changes relative to vehicle control ([1]; HeLa, protein COPB1) | fold changes relative to vehicle control ([2]; HeLa, captured protein HSPA5) | fold changes relative to vehicle control ([3]; HeLa, protein DECR2) | fold changes relative to vehicle control ([4]; HeLa, captured protein PEF1) | fold changes relative to vehicle control ([5]; protein PDIA3, HeLa) | fold changes relative to vehicle control ([6]; HeLa, captured protein RBM14) | fold changes relative to vehicle control ([2]; protein HSPA5, HeLa) | fold changes relative to vehicle control ([4]; HeLa, protein PEF1) | fold changes relative to vehicle control ([6]; captured protein RBM14, HeLa) | fold changes relative to vehicle control [1] | fold changes relative to vehicle control [2] | fold changes relative to vehicle control [3] | fold changes relative to vehicle control [4] | fold changes relative to vehicle control [5] | fold changes relative to vehicle control [6]
1 | Nc1nc2c(c(=O)[nH]1)N(C=O)C(CNc1ccc(C(=O)N[C@@H](CCC(=O)O)C(=O)O)cc1)CN2 (stereo partly drawn) [LEU, leucovorin] | 0.87 | 1.06 | 1.02 | 0.95 | 0.94 | 0.92 |  |  |  |  |  |  |  |  | 
2 | NCCCNc1ccc(C(=O)NC(CCC(=O)O)C(=O)O)cc1 (stereo not drawn) [compound 7] | 0.97 | 1 | 0.93 | 0.99 | 0.85 | 1.1 |  |  |  |  |  |  |  |  | 
3 | CCCCCCOc1cccc(Cc2cnc(N)nc2N)c1 [compound 2] | 1.07 |  | 1.05 |  | 1.79 |  | 1.12 | 0.76 | 1 |  |  |  |  |  | 
4 | CCCCCCOc1ccc(Cc2cnc(N)nc2N)cc1 [compound 1] | 0.97 |  | 1 |  | 1.19 |  | 0.96 | 0.88 | 0.72 |  |  |  |  |  | 
5 | Nc1nc2cccc(-c3ccccc3)c2n1Cc1ccc(Cl)c(Cl)c1 [compound 3] | 1.17 |  | 0.99 |  | 0.85 |  | 0.99 | 1.06 | 0.87 |  |  |  |  |  | 
6 | NCCOCCOCC(=O)Nc1nc2ncc(CNc3ccc(C(=O)NC(CCC(=O)O)C(=O)O)cc3)nc2c(=O)[nH]1 (stereo not drawn) [compound 6] | 0.92 | 1 | 0.94 | 0.87 | 1.15 | 1.06 |  |  |  |  |  |  |  |  | 
7 | Nc1nc2[nH]cc(CCc3ccc(C(=O)N[C@@H](CCC(=O)O)C(=O)O)cc3)c2c(=O)[nH]1 [PTX, pemetrexed] |  |  |  |  |  |  |  |  |  | 0.84 | 1.03 | 0.89 | 0.99 | 0.97 | 0.99
